Measurements from ChEMBL document CHEMBL2434942, “β-Ionone derived chalcones as potent antiproliferative agents” (Eur J Med Chem, 2013).
Calls of active or inactive are those of the source. The calls are words filed in the database; no cut-off is given here.

Experiments:
[1] = Cytotoxicity against human Hep cells after 48 hrs by SRB assay; type: functional, cell-based
HeLa = assay: Cytotoxicity against human HeLa cells after 48 hrs by SRB assay; type: functional, cell-based
IMR-32 = assay: Cytotoxicity against human IMR32 cells after 48 hrs by SRB assay; type: functional, cell-based; details: IMR-32, 48 h
PC-3 = assay: Cytotoxicity against human PC3 cells after 48 hrs by SRB assay; type: functional, cell-based; details: PC-3, 48 h
MCF7 = assay: Cytotoxicity against human MCF7 cells after 48 hrs by SRB assay; type: functional, cell-based; details: MCF7, 48 h
CHO [2] = assay: Induction of apoptosis in CHO cells assessed as necrotic cells at 15 uM after 12 hrs using Annexin V/PI staining by flow cytometry (reference value: 3%); type: functional, Cricetulus griseus
CHO [3] = assay: Induction of apoptosis in CHO cells assessed as late apoptotic cells at 15 uM after 12 hrs using Annexin V/PI staining by flow cytometry (reference value: 1%); type: functional, Cricetulus griseus
CHO [4] = assay: Induction of apoptosis in CHO cells assessed as viable cells at 15 uM after 12 hrs using Annexin V/PI staining by flow cytometry (reference value: 91.8%); type: functional; details: Cricetulus griseus, read-out: Activity
CHO [5] = assay: Induction of apoptosis in CHO cells assessed as early apoptotic cells at 15 uM after 12 hrs using Annexin V/PI staining by flow cytometry (reference value: 4.3%); type: functional, Cricetulus griseus
CHO [6] = assay: Induction of apoptosis in CHO cells assessed as necrotic cells at 5 uM after 12 hrs using Annexin V/PI staining by flow cytometry (reference value: 3%); type: functional, Cricetulus griseus
CHO [7] = assay: Induction of apoptosis in CHO cells assessed as late apoptotic cells at 5 uM after 12 hrs using Annexin V/PI staining by flow cytometry (reference value: 1%); type: functional, Cricetulus griseus
CHO [8] = assay: Induction of apoptosis in CHO cells assessed as viable cells at 5 uM after 12 hrs using Annexin V/PI staining by flow cytometry (reference value: 91.8%); type: functional; details: Cricetulus griseus, read-out: Activity
CHO [9] = assay: Induction of apoptosis in CHO cells assessed as early apoptotic cells at 5 uM after 12 hrs using Annexin V/PI staining by flow cytometry (reference value: 4.3%); type: functional, Cricetulus griseus
CHO [10] = assay: Induction of apoptosis in CHO cells assessed as necrotic cells at 10 uM after 12 hrs using Annexin V/PI staining by flow cytometry (reference value: 3%); type: functional, Cricetulus griseus
CHO [11] = assay: Induction of apoptosis in CHO cells assessed as late apoptotic cells at 10 uM after 12 hrs using Annexin V/PI staining by flow cytometry (reference value: 1%); type: functional, Cricetulus griseus
CHO [12] = assay: Induction of apoptosis in CHO cells assessed as viable cells at 10 uM after 12 hrs using Annexin V/PI staining by flow cytometry (reference value: 91.8%); type: functional; details: Cricetulus griseus, read-out: Activity
CHO [13] = assay: Induction of apoptosis in CHO cells assessed as early apoptotic cells at 10 uM after 12 hrs using Annexin V/PI staining by flow cytometry (reference value: 4.3%); type: functional, Cricetulus griseus
CHO [14] = assay: Cell cycle arrest in CHO cells assessed as accumulation at sub-G0 phase at 15 uM after 12 hrs using propidium iodide staining by FACS analysis (reference value: 19.8%); type: functional, Cricetulus griseus
CHO [15] = assay: Cell cycle arrest in CHO cells assessed as accumulation at sub-G0 phase at 5 uM after 12 hrs using propidium iodide staining by FACS analysis (reference value: 19.8%); type: functional, Cricetulus griseus
CHO [16] = assay: Cell cycle arrest in CHO cells assessed as accumulation at sub-G0 phase at 10 uM after 12 hrs using propidium iodide staining by FACS analysis (reference value: 19.8%); type: functional, Cricetulus griseus
CHO [17] = assay: Induction of apoptosis in CHO cells assessed as cell shrinkage, membrane blebbing and formation of apoptotic body at 5 to 15 uM after 6 to 12 hrs by inverted light microscopic analysis; type: functional, cell-based; details: Cricetulus griseus
CHO [18] = assay: Induction of apoptosis in CHO cells assessed as cell shrinkage, membrane blebbing and formation of apoptotic body at 5 to 15 uM after 24 hrs by inverted light microscopic analysis; type: functional, cell-based; details: Cricetulus griseus
CHO [19] = assay: Cytotoxicity against CHO cells after 48 hrs by SRB assay; type: functional, cell-based; details: Cricetulus griseus

Row | Compound | IC50 [1] | IC50 (HeLa) | IC50 (IMR-32) | IC50 (PC-3) | IC50 (MCF7) | other results
1 | CC1=C(/C=C/C(=O)/C=C/c2cccnc2)C(C)(C)CCC1 | 45.6 µM | 17.4 µM | 25.3 µM | 10.2 µM | 15.5 µM | –
2 | CC1=C(/C=C/C(=O)/C=C/c2ccc(F)cc2)C(C)(C)CCC1 | 55.8 µM | 32.2 µM | 7.4 µM | 8.2 µM | 6.2 µM | –
3 | CC1=C(/C=C/C(=O)/C=C/c2ccccc2[N+](=O)[O-])C(C)(C)CCC1 | 44.9 µM | 36.1 µM | 13.5 µM | 9.5 µM | 10.1 µM | –
4 | CO[C@@]12[C@H](COC(N)=O)C3=C(C(=O)C(C)=C(N)C3=O)N1C[C@@H]1N[C@@H]12 [MITOMYCIN] | – | 2 µM | – | – | – | –
5 | CC1=C(/C=C/C(=O)/C=C/c2ccc(C#N)cc2)C(C)(C)CCC1 | 45.6 µM | 22.2 µM | 23.4 µM | 11.9 µM | 13.2 µM | –
6 | COc1ccccc1/C=C/C=C/C(=O)/C=C/C1=C(C)CCCC1(C)C | 65.3 µM | 33.5 µM | 72.4 µM | 25.3 µM | 55.4 µM | –
7 | CC1=C(/C=C/C(=O)/C=C/c2ccc(Br)cc2)C(C)(C)CCC1 | 34.5 µM | 88.8 µM | 10.4 µM | 18.9 µM | 20.1 µM | –
8 | CC1=C(/C=C/C(=O)/C=C/c2ccc(Cl)c(Cl)c2)C(C)(C)CCC1 | > 100 µM | > 100 µM | 72.4 µM | 35.5 µM | 53.5 µM | –
9 | COc1ccc(/C=C/C(=O)/C=C/C2=C(C)CCCC2(C)C)cc1 | > 100 µM | 15.7 µM | 23.9 µM | 58.7 µM | 19.6 µM | –
10 | COc1cc(/C=C/C(=O)/C=C/C2=C(C)CCCC2(C)C)cc(OC)c1OC | 45.5 µM | 73.2 µM | 55.5 µM | 32.6 µM | 18.7 µM | –
11 | COc1ccccc1/C=C/C(=O)/C=C/C1=C(C)CCCC1(C)C | 38.9 µM | 88.2 µM | 19.2 µM | 14.2 µM | 13.4 µM | –
12 | CC1=C(/C=C/C(=O)/C=C/c2ccoc2)C(C)(C)CCC1 | > 100 µM | 88.4 µM | 56.8 µM | 50.3 µM | 100 µM | –
13 | CC1=C(/C=C/C(=O)/C=C/c2ccccc2C)C(C)(C)CCC1 | 41 µM | > 100 µM | 63.2 µM | 44.1 µM | 44.6 µM | –
14 | CC1=C(/C=C/C(=O)/C=C/c2ccccc2Cl)C(C)(C)CCC1 | 54.2 µM | 21.8 µM | 13.7 µM | 11.3 µM | 54.6 µM | –
15 | CC1=C(/C=C/C(=O)/C=C/c2ccc(Cl)cc2)C(C)(C)CCC1 | 90.6 µM | 33.2 µM | 52.3 µM | 9.5 µM | 10.2 µM | –
16 | CC1=C(/C=C/C(=O)/C=C/c2ccccc2)C(C)(C)CCC1 | 62.2 µM | 70.2 µM | 20.4 µM | 12.4 µM | 10.6 µM | –
17 | CC1=C(/C=C/C(=O)/C=C/c2ccccc2F)C(C)(C)CCC1 | 23.6 µM | 41.9 µM | 15.6 µM | 3.4 µM | 11 µM | –
18 | O=c1[nH]cc(F)c(=O)[nH]1 [FLUOROURACIL] | 0.5 µM | – | 1.3 µM | – | – | –
19 | CC1=C(/C=C/C(=O)/C=C/c2ccccc2Br)C(C)(C)CCC1 | 16.3 µM | 57.9 µM | 16.3 µM | 11.4 µM | 20.7 µM | –
20 | CC1=C(/C=C/C(=O)/C=C/c2ccc([N+](=O)[O-])cc2)C(C)(C)CCC1 | 55.5 µM | 28.7 µM | 3.2 µM | 1.9 µM | 5.5 µM | Activity (CHO [2]): 39.1%; Activity (CHO [3]): 7.5%; viability at 15 µM (CHO [4]): 52.3%; Activity (CHO [5]): 1.1%; Activity (CHO [6]): 19.4%; Activity (CHO [7]): 5.1%; viability at 5 µM (CHO [8]): 74.7%; Activity (CHO [9]): 0.8%; Activity (CHO [10]): 33.3%; Activity (CHO [11]): 5.8%; viability at 10 µM (CHO [12]): 59.5%; Activity (CHO [13]): 1.4%; Activity (CHO [14]): 48.1%; Activity (CHO [15]): 30.5%; Activity (CHO [16]): 36%; Activity (CHO [17]): Active; Activity (CHO [18]): Active; Activity (CHO [19]): Dose-dependent effect; IC50 (CHO [19]): 10 µM
21 | CC1=C(/C=C/C(=O)/C=C/c2cccc3ccccc23)C(C)(C)CCC1 | > 100 µM | 65.4 µM | 43.8 µM | 56.4 µM | 53.2 µM | –
22 | CC[C@@]1(O)C(=O)OCc2c1cc1n(c2=O)Cc2cc3ccccc3nc2-1 [CAMPTOTHECIN] | – | – | – | – | – | Activity (CHO [10]): 21.6%; Activity (CHO [11]): 2.4%; viability at 10 µM (CHO [12]): 74.8%; Activity (CHO [13]): 1.2%; Activity (CHO [16]): 50.5%
23 | CC(=O)O[C@H]1C(=O)[C@@]2(C)[C@H]([C@H](OC(=O)c3ccccc3)[C@]3(O)C[C@H](OC(=O)[C@H](O)[C@@H](NC(=O)c4ccccc4)c4ccccc4)C(C)=C1C3(C)C)[C@]1(OC(C)=O)CO[C@@H]1C[C@@H]2O [PACLITAXEL] | – | – | – | 1.5 µM | 0.5 µM | –
24 | CC1=C(/C=C/C(=O)/C=C/C=C/c2ccccc2)C(C)(C)CCC1 | > 100 µM | > 100 µM | 23.4 µM | 35.4 µM | 46.7 µM | –
25 | COc1ccc(/C=C/C(=O)/C=C/C2=C(C)CCCC2(C)C)cc1OC | 72.4 µM | 85 µM | 29.2 µM | 30.2 µM | 35.6 µM | –
26 | CC1=C(/C=C/C(=O)/C=C/c2ccc(C)cc2)C(C)(C)CCC1 | 44.1 µM | 20.4 µM | 19.2 µM | 21.5 µM | 23.8 µM | –
